The text below walks through data of US20240116946A1 (Gilead Sciences, Inc., priority 2022, published 2024).

Where two headings read alike, the source gives them in different places.

Test [1] addresses recombinant SARS-CoV-2 Main protease (Mpro) (Severe acute respiratory syndrome coronavirus 2 (2019-nCoV) (SARS-CoV-2), UniProt P0DTD1). Nature of the test: Cov Mpro Biochemical IC50 Assay. The settings on record: fluorogenic peptide substrate.
For test [2], the system named is SARS-CoV-2-NLuc. Put plainly: microbe, parasite or virus in culture. The class given is cell-based, SARS Coronavirus 2.
[3] abbreviates: recombinant SARS-CoV-2 Mpro, read-out: MPro IC50.
[4] abbreviates: Severe acute respiratory syndrome coronavirus, 48 h; read-out: MPro EC50.
[5] abbreviates: Severe acute respiratory syndrome coronavirus, 48 h, read-out: MPro EC50.
[6] abbreviates: MPro IC50, recombinant SARS-CoV-2 Mpro.

With `O=c1[nH]c2cc(-c3ccccc3)cnc2c(=O)n1-c1cncc2ccccc12` [Example 29], in test [1] (setting [3]), the IC50 was found to be 476 nM. Further, in test [2] (setting [4]), the EC50 is 4.51 µM.
Take `O=c1[nH]c2cc(-c3ccccc3Cl)cnc2c(=O)n1-c1cncc2ccccc12` [Example 30]: the IC50 in test [1] (setting [3]) amounted to 17.6 nM. In test [2] (setting [5]), the EC50 is 0.38 µM.
With `O=c1[nH]c2nc(-c3ccccc3)ccc2c(=O)n1-c1cncc2ccccc12` [Example 31], the IC50 in test [1] (setting [3]) worked out at 14800 nM. In test [2] (setting [4]), the EC50 was more than 50 µM.
For `O=c1[nH]c2nc(-c3ccccc3Cl)ccc2c(=O)n1-c1cncc2ccccc12` [Example 32], the 50% inhibitory concentration (IC50) in test [1] (setting [3]) is 2280 nM. In addition, in test [2] (setting [4]), the EC50 is 7.06 µM.
On to `N#Cc1cccc(-c2ccc3c(=O)n(-c4cncc5ccccc45)c(=O)[nH]c3c2)c1` [Example 34], for which the IC50 in test [1] (setting [3]) stood at 1520 nM. Also, the EC50 in test [2] (setting [5]) stood at 6.53 µM.
The like results for `N#Cc1ccc(-c2ccc3c(=O)n(-c4cncc5ccccc45)c(=O)[nH]c3c2)cc1` [Example 35] were, in that order, more than 100000 nM and more than 50 µM.
The like results for `Cc1ccccc1-c1ccc2c(=O)n(-c3cncc4ccccc34)c(=O)[nH]c2c1` [Example 36] were, in that order, 388 nM and 0.619 µM.
Taken in the same sequence, the figures for `O=c1[nH]c2cc(-c3ccccc3Cl)c(F)cc2c(=O)n1-c1cncc2ccccc12` [Example 37] were 248 nM and 0.17 µM.
Regarding `O=c1[nH]c2cc(-c3ccccc3)c(F)cc2c(=O)n1-c1cncc2ccccc12` [Example 38], the half-maximal inhibitory concentration (IC50) in test [1] (setting [3]) is more than 100000 nM. The EC50 in test [2] (setting [4]) turned out to be 4.91 µM.
Regarding `Cc1nnc(-c2cccc(-c3ccc4c(=O)n(-c5cncc6ccccc56)c(=O)[nH]c4c3)c2)o1` [Example 39], in test [1] (setting [3]), the IC50 worked out at 7750 nM. In test [2] (setting [4]), the EC50 was found to be 23.4 µM.
Taken in the same sequence, the figures for `O=c1[nH]c2cc(-c3cccc4cccnc34)ccc2c(=O)n1-c1cncc2ccccc12` [Example 40] were 1310 nM and 4.91 µM.
The like results for `Cn1ccc2cccc(-c3ccc4c(=O)n(-c5cncc6ccccc56)c(=O)[nH]c4c3)c21` [Example 41] were, in that order, 1480 nM and 3.84 µM.
Taken in the same sequence, the figures for `O=c1[nH]c2cc(-c3cncc4ccccc34)ccc2c(=O)n1-c1cncc2ccccc12` [Example 42] were 3220 nM and 4.95 µM.
Take `O=c1[nH]c2cc(-c3cccnc3)ccc2c(=O)n1-c1cncc2ccccc12` [Example 43]: the IC50 in test [1] (setting [3]) is 3120 nM. Besides, the EC50 in test [2] (setting [5]) was more than 50 µM.
Consider `Cc1noc(C)c1-c1ccc2c(=O)n(-c3cncc4ccccc34)c(=O)[nH]c2c1` [Example 44], for which the IC50 in test [1] (setting [6]) came out at 1370 nM. For the same compound, the EC50 in test [2] (setting [4]) amounted to 3 µM.
The like results for `O=c1[nH]c2cc(-c3ccccc3C3CC3)ccc2c(=O)n1-c1cncc2ccccc12` [Example 45] were, in that order, 1710 nM and 1.22 µM.
For the compound `Cc1ccccc1-c1cnc2c(=O)n(-c3cncc4ccccc34)c(=O)[nH]c2c1` [Example 46], the IC50 in test [1] (setting [3]) came to 216 nM. The EC50 in test [2] (setting [4]) turned out to be 0.989 µM.
The like results for `COc1cccc(Cl)c1-c1cnc2c(=O)n(-c3cncc4ccccc34)c(=O)[nH]c2c1` [Example 48] were, in that order, 95.7 nM and 0.277 µM.
In the case of `O=c1[nH]c2cc(-c3ccc4sccc4c3)ccc2c(=O)n1-c1cncc2ccccc12` [Example 49], the IC50 in test [1] (setting [3]) was more than 100000 nM. In addition, in test [2] (setting [5]), the EC50 stood at 12.8 µM.
Turning to `O=c1[nH]c2cc(-c3csc4ccccc34)ccc2c(=O)n1-c1cncc2ccccc12` [Example 50], the IC50 in test [1] (setting [3]) was 7920 nM. The EC50 in test [2] (setting [5]) was 9.06 µM.
Taken in the same sequence, the figures for `O=c1[nH]c2cc(-c3ccc4ccccc4c3)ccc2c(=O)n1-c1cncc2ccccc12` [Example 51] were more than 100000 nM and 6.8 µM.
Taken in the same sequence, the figures for `CC(C)c1ccccc1-c1ccc2c(=O)n(-c3cncc4ccccc34)c(=O)[nH]c2c1` [Example 52] were 12800 nM and 3.72 µM.
The like results for `O=c1[nH]c2cc(-c3cc(Cl)cc(Cl)c3)ccc2c(=O)n1-c1cncc2ccccc12` [Example 53] were, in that order, 33200 nM and 4.33 µM.
Regarding `COCc1ccccc1-c1ccc2c(=O)n(-c3cncc4ccccc34)c(=O)[nH]c2c1` [Example 54], in test [1] (setting [3]), the IC50 worked out at 741 nM. For the same compound, the EC50 in test [2] (setting [5]) was 1.63 µM.
Taken in the same sequence, the figures for `O=c1[nH]c2cc(-c3ccccc3OCc3ccccc3Cl)ccc2c(=O)n1-c1cncc2ccccc12` [Example 55] were 12800 nM and 1.83 µM.
Taken in the same sequence, the figures for `O=c1[nH]c2cc(-c3cccc(Cl)c3)ccc2c(=O)n1-c1cncc2ccccc12` [Example 56] were 2750 nM and 3.94 µM.
The like results for `O=c1[nH]c2cc(-c3ccccc3OCc3ccccc3)ccc2c(=O)n1-c1cncc2ccccc12` [Example 57] were, in that order, 5450 nM and 1.52 µM.
With `COc1cccc(Cl)c1-c1ccc2c(=O)n(-c3cncc4ccccc34)c(=O)[nH]c2c1` [Example 58], the IC50 in test [1] (setting [3]) was found to be 158 nM. In addition, the EC50 in test [2] (setting [5]) was 0.164 µM.
Taken in the same sequence, the figures for `O=c1[nH]c2cc(-c3cccc(Cl)c3Cl)ccc2c(=O)n1-c1cncc2ccccc12` [Example 59] were more than 100000 nM and 6.01 µM.
With `O=c1[nH]c2cc(-c3cc(Cl)ccc3Cl)ccc2c(=O)n1-c1cncc2ccccc12` [Example 60], in test [1] (setting [3]), the IC50 turned out to be 192 nM. In test [2] (setting [5]), the EC50 stood at 0.227 µM.
With `COc1cccc(F)c1-c1ccc2c(=O)n(-c3cncc4ccccc34)c(=O)[nH]c2c1` [Example 61], the IC50 in test [1] (setting [3]) came out at 914 nM. Further, the EC50 in test [2] (setting [5]) turned out to be 0.648 µM.
In the case of `N#Cc1ncccc1-c1ccc2c(=O)n(-c3cncc4ccccc34)c(=O)[nH]c2c1` [Example 62], the IC50 in test [1] (setting [3]) is 904 nM. In addition, the EC50 in test [2] (setting [5]) came to 3.15 µM.
In the case of `Cc1ncccc1-c1ccc2c(=O)n(-c3cncc4ccccc34)c(=O)[nH]c2c1` [Example 63], in test [1] (setting [3]), the IC50 is 5850 nM. Further, the EC50 in test [2] (setting [5]) stood at 8.44 µM.
With `Cc1c(-c2ccccc2Cl)sc2c1c(=O)n(-c1cncc3ccccc13)c(=O)n2CC1CCCC1` [Example 64], the IC50 in test [1] (setting [3]) came to 28400 nM. In addition, in test [2] (setting [4]), the EC50 amounted to 3.14 µM.
`N#Cc1ccccc1-c1ccc2c(=O)n(-c3cncc4ccccc34)c(=O)[nH]c2c1` [Example 65, 2-(3-(isoquinolin-4-yl)-2,4-dioxo-1,2,3,4-tetrahydroquinazolin-7-yl)benzonitrile]: the IC50 in test [1] (setting [3]) amounted to 108 nM. Also, the EC50 in test [2] (setting [5]) came out at 0.286 µM.
Taken in the same sequence, the figures for `NC(=O)c1ccccc1-c1ccc2c(=O)n(-c3cncc4ccccc34)c(=O)[nH]c2c1` [Example 66, 2-(3-(isoquinolin-4-yl)-2,4-dioxo-1,2,3,4-tetrahydroquinazolin-7-yl)benzamide] were 2010 nM and more than 50 µM.
On to `N#Cc1ccccc1-c1cc2[nH]c(=O)n(-c3cncc4ccccc34)c(=O)c2cc1F` [Example 67], for which, in test [1] (setting [3]), the IC50 worked out at 88.8 nM. The EC50 in test [2] (setting [5]) is 0.213 µM.
On to `NC(=O)c1ccccc1-c1cc2[nH]c(=O)n(-c3cncc4ccccc34)c(=O)c2cc1F` [Example 68], for which, in test [1] (setting [3]), the IC50 is 1010 nM. The EC50 in test [2] (setting [5]) came to 43.8 µM.
Taken in the same sequence, the figures for `N#Cc1ccccc1-c1cnc2c(=O)n(-c3cncc4ccccc34)c(=O)[nH]c2c1` [Example 69] were 53.1 nM and 4.21 µM.
Taken in the same sequence, the figures for `NC(=O)c1ccccc1-c1cnc2c(=O)n(-c3cncc4ccccc34)c(=O)[nH]c2c1` [Example 70] were 2680 nM and more than 50 µM.
